Laboratory results: patent US20250205182A1, “COMPOSITIONS AND METHODS FOR IMPROVING GUT PERMEABILITY” (BRIGHTSEED, INC., priority 2022, published 2025)
Entries after “also recorded” stand apart in the source; their conditions may differ.

Test system: human transverse colon epithelial cells
Experiment: Transepithelial electrical resistance (TEER) of transverse colon monolayers treated with TNFα
Assay type: cell-based
Details: for change in TEER as a result of TNF administration: with TNFα, 10, 20, 40 μM, after 48 hours, relative to t=0; for TEER: with TNF
From the text: Cell Information: Donor 5 Transverse Colon, HISC-0033, Passage 10. Plated onto 4×96-well RepliGut® transwell plates coated with thin hydrogel coating. 2× RepliGut® transwell plates had 1.0 μm pore size (Corning 3380) and 2× RepliGut® transwell plates had 0.4 μm pore size (Corning 7369).
Compound Information: TNFα was supplied by Allis Biosystems and reconstituted according to the manufacturer's instructions. All other compounds were provided by Brightseed in DMSO (Table 1). Stocks were created for each treatment (Table 2) so that the final concentration of an individual compound in the culture media was 0.1% media volume for all compounds.
Proliferative human transverse colon epithelial cells were plated in Altis Expansion media using Altis-established protocols onto 4×96-well RepliGut® transwell plates coated with a thin layer of hydrogel. Cultures were monitored every day using a bright field microscope. Transverse colon epithelial monolayers became confluent on Day 4, at which point media was changed to Altis Differentiation media. The cells were cultured for an additional 2 days. Brightseed compounds and TNFα, listed in Table 2, were diluted in Altis Differentiation media, mixed well, and added to apical and basal compartment of transwell cultures at t=0 hours. All conditions were performed in triplicate. Cells were treated with compounds for a total of 48 hours.
Transepithelial electrical resistance was measured in all transwell cultures at t=0 hours prior to the addition of compounds to determine baseline TEER using an Epithelial Volt/Ohm Meter (World Precision Instruments, EVOM2) and STX100C96 Electrode. TEER was also measured at t=24 hours, t=45 hours, and t=48 hours. The surface area of a 96-well transwell is 0.143 cm^2 per well. Corrected TEER was calculated using the formula below.
(Raw measured TEER of sample transwell−Raw measured TEER of blank transwell)×Surface Area
Statistical analysis was performed using GraphPad Prism software version 9.4.1 (GraphPad Inc., La Jolla, CA, USA). Two-way ANOVA of means from n=3 samples per group was performed to measure simple effects within treatment groups. Tukey's range test was performed to correct for multiple comparisons. Differences between the groups were considered significant at p<0.05.

[1] = FIGS. 1-12 (TEER and permeability)

Compound	optimal concentration of the study [1] [µM]	rank of effect among the test articles [1]	change in TEER as a result of TNF administration	change in TEER as a result of TNF administration (listed as NCT)	TEER (10 μM)	TEER (20 and 40 μM)	change in TEER as a result of TNF administration (listed as NFT)
O=C(/C=C/c1ccc(O)c(O)c1)NCCc1ccc(O)cc1 [Compound 1, N-trans-caffeoyltyramine]	40	greatest effect	dose-dependent and statistically significant reversal of this decrease	improved the change in TEER as a result of TNF administration in a dose-dependent manner; also recorded: protected against (a) decreased TEER			
COc1cc(/C=C/C(=O)NCCc2ccc(O)cc2)ccc1O [Compound 2, N-trans-feruloyltyramine]			dose-dependent and statistically significant reversal of this decrease		improved TEER	did not show the same dose-dependent effect	protected against (a) decreased TEER
